{"source": "ChEMBL document CHEMBL5257097", "about": "“An Isomer of Galidesivir That Potently Inhibits Influenza Viruses and Members of the Bunyavirales Order” (ACS Med Chem Lett, 2023)", "key": {"[1]": {"test": "(§1) Selectivity index, ratio of CC50 for cytotoxicity against African green monkey Vero 76 cells infected with MERS-CoV assessed as reduction in cell viability by visual analysis to EC50 for antiviral activity against MERS-CoV infected in African green monkey Vero 76 cells assessed as reduction in virus-induced cytopathic effect by visual analysis", "type": "toxicity, cell-based", "details": "read-out: Ratio CC50/EC50"}, "[2]": {"test": "as §1, with “neutral red dye based” for “visual”", "type": "toxicity", "details": "read-out: Ratio CC50/EC50"}, "[3]": {"tested_on": "Influenza A virus", "test": "Antiviral activity against Influenza A virus H1N1 infected in dog MDCK cells assessed as inhibition of viral replication measured after 15 to 30 mins by visual analysis", "type": "functional, organism-based"}, "[4]": {"tested_on": "Influenza A virus", "test": "Antiviral activity against Influenza A virus H1N1 infected in dog MDCK cells assessed as inhibition of viral replication measured after 15 to 30 mins by neutral red dye based analysis", "type": "functional, organism-based"}, "[5]": {"tested_on": "Influenza B virus", "test": "Antiviral activity against Influenza B virus infected in dog MDCK cells assessed as inhibition of viral replication measured after 15 to 30 mins by visual analysis", "type": "functional, organism-based"}, "[6]": {"tested_on": "Influenza B virus", "test": "Antiviral activity against Influenza B virus infected in dog MDCK cells assessed as inhibition of viral replication measured after 15 to 30 mins by neutral red dye based analysis", "type": "functional, organism-based"}, "[7]": {"test": "Cytotoxicity against dog MDCK cells infected with Influenza A virus H3N2 assessed as reduction in cell viability by neutral red dye based analysis", "type": "toxicity, Canis lupus familiaris"}, "[8]": {"test": "Cytotoxicity against dog MDCK cells infected with Influenza A virus H7N9 assessed as reduction in cell viability by visual analysis", "type": "toxicity, cell-based, Canis lupus familiaris"}, "[9]": {"test": "Cytotoxicity against dog MDCK cells infected with Influenza A virus H7N9 assessed as reduction in cell viability by neutral red dye based analysis", "type": "toxicity, Canis lupus familiaris"}, "[10]": {"test": "Cytotoxicity against dog MDCK cells infected with Influenza B virus assessed as reduction in cell viability by neutral red dye based analysis", "type": "toxicity, Canis lupus familiaris"}, "[11]": {"test": "as §1, with “dog MDCK” for “African green monkey Vero 76”, “Influenza A virus H7N9” for “MERS-CoV”, “inhibition of viral replication” for “reduction in virus-induced cytopathic effect”", "type": "toxicity, cell-based", "details": "read-out: Ratio CC50/EC50"}, "[12]": {"test": "(§2) Selectivity index, ratio of CC50 for cytotoxicity against dog MDCK cells infected with Influenza A virus H7N9 assessed as reduction in cell viability by neutral red dye based analysis to EC50 for antiviral activity against Influenza A virus H7N9 infected in dog MDCK cells assessed as inhibition of viral replication by neutral red dye based analysis", "type": "toxicity", "details": "read-out: Ratio CC50/EC50"}, "[13]": {"tested_on": "Influenza A virus", "test": "Antiviral activity against Influenza A virus H1N1 infected in dog MDCK cells assessed as reduction in virus yield measured after 3 days by visual analysis", "type": "functional", "details": "72 h, time 3 day"}, "[14]": {"test": "as §2, with “H1N1” for “H7N9”, “visual” for “neutral red dye based”, “EC90” for “EC50”, “reduction in” for “inhibition of”, “yield” for “replication”", "type": "toxicity, cell-based"}, "[15]": {"test": "as §2, with “B” for “A”, “virus” for “virus H7N9”, “visual” for “neutral red dye based”, “EC90” for “EC50”, “reduction in” for “inhibition of”, “yield” for “replication”", "type": "toxicity, cell-based"}, "[16]": {"tested_on": "Pichinde virus", "test": "Antiviral activity against Pichinde virus infected in African green monkey Vero cells assessed as inhibition of viral replication by neutral red dye based analysis", "type": "functional, organism-based"}, "[17]": {"tested_on": "Mammarenavirus choriomeningitidis", "test": "Antiviral activity against Lymphocytic choriomeningitis virus infected in African green monkey Vero E6 cells assessed as reduction in viral yield measured for 3 days", "type": "functional", "details": "Vero C1008, 72 h, time 3 day"}, "[18]": {"test": "Cytotoxicity against African green monkey Vero E6 cells infected with JUNV assessed as reduction in cell viability by visual analysis", "type": "toxicity, cell-based, Vero C1008", "details": "chlorocebus sabaeus"}, "[19]": {"test": "Cytotoxicity against African green monkey Vero 76 cells infected with La Crosse virus assessed as reduction in cell viability by visual analysis", "type": "toxicity, cell-based", "details": "chlorocebus sabaeus"}, "[20]": {"test": "Cytotoxicity against African green monkey Vero E6 cells infected with Lymphocytic choriomeningitis virus assessed as reduction in cell viability", "type": "toxicity, cell-based, Vero C1008", "details": "chlorocebus sabaeus"}, "[21]": {"test": "Cytotoxicity against African green monkey Vero 76 cells infected with Punta Toro virus assessed as reduction in cell viability by neutral red dye based analysis", "type": "toxicity", "details": "chlorocebus sabaeus"}, "[22]": {"test": "(§3) Selectivity index, ratio of CC50 for cytotoxicity against African green monkey Vero E6 cells infected with Heartland virus assessed as reduction in cell viability to EC90 for antiviral activity against Heartland virus infected in African green monkey Vero E6 cells assessed as reduction in viral yield", "type": "toxicity, cell-based, Vero C1008"}, "[23]": {"test": "as §2, with “African green monkey Vero” for “dog MDCK”, “JUNV” for “Influenza A virus H7N9”, “reduction in” for “inhibition of”", "type": "toxicity", "details": "read-out: Ratio CC50/EC50"}, "[24]": {"test": "as §1, with “La Crosse virus” for “MERS-CoV”, “neutral red dye” for “visual”, “viral replication” for “virus-induced cytopathic effect”", "type": "toxicity, cell-based", "details": "read-out: Ratio CC50/EC50"}, "[25]": {"test": "as §3, with “Lymphocytic choriomeningitis” for “Heartland”", "type": "toxicity, cell-based, Vero C1008"}, "[26]": {"test": "as §2, with “African green monkey Vero E6” for “dog MDCK”, “Oropouche” for “Influenza A”, “virus” for “virus H7N9”, “reduction in” for “inhibition of”", "type": "toxicity, Vero C1008", "details": "read-out: Ratio CC50/EC50"}, "[27]": {"test": "Toxicity in BALB/c mouse infected with influenza A/Ca/04/09 (H1N1) assessed as animal survival at 10 to 300 mg/kg, ip measured every day for 6 days", "type": "organism-based", "details": "in vivo, 144 h, dose 10-300 mg/kg, time 6 day"}, "[28]": {"test": "Toxicity in BALB/c mouse infected with influenza A/Ca/04/09 (H1N1) assessed as mortality at 100 mg/kg, ip measured every day for 6 days", "type": "organism-based", "details": "in vivo, time 6 day, read-out: Activity"}, "[29]": {"test": "Toxicity in BALB/c mouse infected with influenza A/Ca/04/09 (H1N1) assessed as mortality at 300 mg/kg, ip measured every day for 6 days", "type": "organism-based", "details": "in vivo, time 6 day, read-out: Activity"}, "[30]": {"test": "Toxicity in BALB/c mouse infected with A/Ca/04/09 (H1N1) assessed as animal survival at 10 to 300 mg/kg, ip administered twice a day for 5 days", "type": "organism-based", "details": "in vivo, 120 h, dose 10-300 mg/kg, time 5 day"}, "[31]": {"test": "Toxicity in BALB/c mouse infected with A/Ca/04/09 (H1N1) assessed as animal mean day of death at 10 mg/kg, ip administered twice a day for 5 days (reference value: 9.3 +/-1.1 day )", "type": "organism-based", "details": "in vivo, 120 h, time 5 day"}, "[32]": {"tested_on": "Ebolavirus", "test": "Antiviral activity against Ebola virus infected in human HeLa cells assessed as reduction in viral cytopathic effect", "type": "functional, organism-based", "details": "Orthoebolavirus"}, "[33]": {"tested_on": "Measles morbillivirus", "test": "Antiviral activity against Measles virus infected in African green monkey Vero cells assessed as reduction in viral cytopathic effect", "type": "functional, organism-based"}, "[34]": {"tested_on": "dengue virus type 2", "test": "Antiviral activity against DENV-2 infected in African green monkey Vero cells assessed as reduction in virus-induced cytopathic effect measured after 15 to 30 mins by neutral red based analysis", "type": "functional, organism-based"}, "[35]": {"test": "Cytotoxicity against African green monkey Vero cells infected with DENV-2 assessed as reduction in cell viability by neutral red dye based assay", "type": "toxicity", "details": "chlorocebus sabaeus"}, "[36]": {"test": "as §1, with “Vero” for “Vero 76”, “with DENV-2” for “with MERS-CoV”, “against DENV-2” for “against MERS-CoV”, “in human Huh-7” for “in African green monkey Vero 76”", "type": "toxicity, cell-based", "details": "read-out: Ratio CC50/EC50"}, "[37]": {"test": "Cytotoxicity against vervet monkey MA-104 cells infected with MERS-CoV assessed as reduction in cell viability by neutral red dye based assay", "type": "toxicity", "details": "cercopithecus pygerythrus"}, "[38]": {"test": "as §1, with “vervet” for “African green”, “MA-104” for “Vero 76”", "type": "toxicity, cell-based", "details": "read-out: Ratio CC50/EC50"}}}
{"smiles": "Nc1ncnn2c([C@@H]3N[C@H](CO)[C@@H](O)[C@H]3O)ccc12", "values": [{"measurement": "selectivity ratio", "setting": "[1]", "value": 31}, {"measurement": "selectivity ratio", "setting": "[2]", "value": 15}, {"measurement": "EC50", "setting": "[3]", "value": 0.32, "unit": "µM"}, {"measurement": "EC50", "setting": "[4]", "value": 0.32, "unit": "µM"}, {"measurement": "EC50", "setting": "[5]", "value": 0.32, "unit": "µM"}, {"measurement": "EC50", "setting": "[6]", "value": 0.26, "unit": "µM"}, {"measurement": "CC50", "setting": "[7]", "value": 10, "unit": "µM"}, {"measurement": "CC50", "setting": "[8]", "value": 32, "unit": "µM"}, {"measurement": "CC50", "setting": "[9]", "value": 30, "unit": "µM"}, {"measurement": "CC50", "setting": "[10]", "value": 9.8, "unit": "µM"}, {"measurement": "selectivity ratio", "setting": "[11]", "value": 76}, {"measurement": "selectivity ratio", "setting": "[12]", "value": 77}, {"measurement": "EC90", "setting": "[13]", "value": 0.1, "unit": "µM"}, {"measurement": "selectivity ratio", "setting": "[14]", "value": 240}, {"measurement": "selectivity ratio", "setting": "[15]", "value": 50}, {"measurement": "EC50", "setting": "[16]", "value": 0.3, "unit": "µM"}, {"measurement": "EC90", "setting": "[17]", "value": 0.15, "unit": "µM"}, {"measurement": "CC50", "setting": "[18]", "value": 12, "unit": "µM"}, {"measurement": "CC50", "setting": "[19]", "value": 24, "unit": "µM"}, {"measurement": "CC50", "setting": "[20]", "value": 12, "unit": "µM"}, {"measurement": "CC50", "setting": "[21]", "value": 10, "unit": "µM"}, {"measurement": "selectivity ratio", "setting": "[22]", "value": 97}, {"measurement": "selectivity ratio", "setting": "[23]", "value": 34}, {"measurement": "selectivity ratio", "setting": "[24]", "value": "> 240"}, {"measurement": "selectivity ratio", "setting": "[25]", "value": 80}, {"measurement": "selectivity ratio", "setting": "[26]", "value": 75}, {"measurement": "Activity", "setting": "[27]", "value": "Non-Toxic"}, {"measurement": "mortality at 144 h", "setting": "[28]", "value": 72, "unit": "%"}, {"measurement": "mortality at 144 h", "setting": "[29]", "value": 100, "unit": "%"}, {"measurement": "Activity", "setting": "[30]", "value": "Non-Toxic"}, {"measurement": "Time", "setting": "[31]", "value": 12, "unit": "days"}]}
{"smiles": "Nc1ncnc2c([C@@H]3N[C@H](CO)[C@@H](O)[C@H]3O)c[nH]c12", "note": "[GALIDESIVIR]", "values": [{"measurement": "EC50", "setting": "[32]", "value": 3, "unit": "µM"}, {"measurement": "EC50", "setting": "[33]", "value": 1.8, "unit": "µM"}, {"measurement": "EC50", "setting": "[34]", "value": 15, "unit": "µM"}, {"measurement": "CC50", "setting": "[35]", "value": "> 100", "unit": "µM"}, {"measurement": "selectivity ratio", "setting": "[36]", "value": "> 24"}, {"measurement": "CC50", "setting": "[37]", "value": "> 100", "unit": "µM"}, {"measurement": "selectivity ratio", "setting": "[38]", "value": "> 2.8"}]}
